In US6207399A, “Methods of determining endogenous thrombin potential (ETP) and thrombin substrates for use in said methods” (Hemker; Hendrik Coenraad, priority 1995, dated 2001):
Read-outs that look alike come from different tables or passages of the source. Each block holds one compound with its values, some of them ahead of it. Square brackets hold non-standard residues; d marks the D form. Peptide text beside a SMILES is read from it. * marks the point of attachment. pNA = O=[N+]([O-])c1ccc(N*)cc1; Nle = CCCC[CH](N)C(=O)O; Pip = O=C(O)[CH]1CCCCN1; CH2Cl = ClC*

Tests used:
[1] = system: Factor Xa; settings: Serbio patent EP-B-0 280 610; cited from earlier work
[2] = molecular target: T1, factor Xa (Homo sapiens, UniProt P00742); settings: SQ68 reference, same values as Table 2 entry 17; cited from earlier work
T1 construct: human factor Xa samples; gift of Dr. T. Lindhout (University of Limburg, Maastricht)
T1 sequence (P00742 41-179 limits assumed): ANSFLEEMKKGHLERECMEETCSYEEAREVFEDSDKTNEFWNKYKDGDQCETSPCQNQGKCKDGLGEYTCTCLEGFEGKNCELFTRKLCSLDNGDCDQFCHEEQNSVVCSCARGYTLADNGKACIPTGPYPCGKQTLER
T1 sequence (P00742 235-488 limits assumed): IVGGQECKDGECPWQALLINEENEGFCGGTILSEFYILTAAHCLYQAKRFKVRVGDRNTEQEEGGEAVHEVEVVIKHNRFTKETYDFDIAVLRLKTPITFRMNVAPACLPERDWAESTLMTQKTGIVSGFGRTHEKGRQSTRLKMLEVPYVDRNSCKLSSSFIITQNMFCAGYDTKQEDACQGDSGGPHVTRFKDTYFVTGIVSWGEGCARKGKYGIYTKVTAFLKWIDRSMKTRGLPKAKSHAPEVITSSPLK

[3] = molecular target: T2, human α-thrombin (Homo sapiens, UniProt P00734); settings: from Hemker H.C. et al. (1993); cited from earlier work
T2 construct: Pure human α-thrombin; gift of Dr. T. Lindhout (University of Limburg, Maastricht)

[4] = molecular target: T1, factor Xa; settings: entry marked ^a (Hemker et al. 1993, footnote of Table 1); cited from earlier work
[5] = system: protein C; settings: Serbio patent EP-B-0 280 610; cited from earlier work
[6] = molecular target: T3, thrombin (Homo sapiens, UniProt P00734); parameters: Pure human α-thrombin; gift of Dr. T. Lindhout (University of Limburg, Maastricht); settings: SQ68 reference, same values as Table 1 entry 17 (from Hemker et al. 1993); cited from earlier work
[7] = system: plasmin; settings: Serbio patent EP-B-0 280 610; cited from earlier work
[8] = system: thrombin; settings: Serbio patent EP-B-0 280 610; cited from earlier work
[9] = Water solubility of the substrates; type: physicochemical
[10] = molecular target: T3, thrombin; settings: Angliker et al; cited from earlier work
[11] = molecular target: T2, human α-thrombin; test: Kinetics of hydrolysis of substrates by human α-thrombin in buffer A at 37° C. (Example 2, Table 1); type: biochemical
In short: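 p-Nitroaniline release was followed at 405 nm (dual wavelength 405-546 nm) in buffer A at 37° C, with substrate at 1 to 2000 μM (at least six levels) preincubated 5 min before enzyme at 0.5 to 100 nM. Km and kcat came from initial velocities fitted to Michaelis-Menten by linear regression, from one or two experiments.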

[12] = molecular target: T1, factor Xa; test: Kinetics of hydrolysis of substrates by human factor Xa in buffer A at 37° C. (Example 2, Table 2); type: biochemical
Protocol: Kinetic parameters: The hydrolysis experiments were run in buffer A at 37° C. The liberation of p-nitroaniline was monitored at 405 nm in a dual wavelength (405-546 nm) spectrophotometer made in our workshop, using a personal computer for data recording. In a polystyrene microcuvette (total volume 500 μL), buffer A and substrate solution were added to obtain a final substrate concentration between 1 to 2000 μM. After 5 min of incubation at 37° C., enzyme solution was added to achieve a final concentration between 0.5 to 100 nM. The measurement was carried out at 37° C. in a thermostated cuvette-holder. The Michaelis constant (Km) and the catalytic constant (kcat) were obtained by measuring initial reaction velocities at different substrate concentrations. The data obtained were fitted by linear regression on the Michaelis-Menten equation.
Kinetic parameters: In a preliminary experiment, the substrate was hydrolyzed under the following conditions: enzyme concentration: 10 to 20 nM, substrate concentration: 200 μM in buffer A to get an impression of the initial velocity. […] The results are given in table 1 and 2 for thrombin and factor Xa respectively. The Km and kcat for each substrate were determined from the initial velocities measured for at least six substrate concentrations in the concentration range as given. The enzyme concentration used gives a good signal to noise ratio. The data given are obtained from one or two experiments. The data from table 1 and 2 were only used as the first selection criterion to get a rough impression of the hydrolysis behaviour. Notwithstanding the preliminary character of the measurement it was helpful in the design of the substrates of our interest.

[13] = molecular target: T3, thrombin; test: Kinetic parameters of hydrolysis of the substrates by thrombin in buffer A at 37° C. (Example 4, Table 3); type: biochemical; parameters: Pure human α-thrombin; gift of Dr. T. Lindhout (University of Limburg, Maastricht); settings: buffer A, 37° C.
In short: (§1)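 p-Nitroaniline release followed at 405 nm in buffer A at 37 °C, with at least six substrate levels of 200–2000 μM. Thrombin at 0.5–50 nM, factor Xa at 50 nM; Km and kcat from initial velocities by linear regression on Michaelis-Menten.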

[14] = molecular target: T1, factor Xa; test: Kinetic parameters of hydrolysis of the substrates by factor Xa in buffer A at 37° C. (Example 4, Table 3); type: biochemical; settings: buffer A, 37° C., 50 nM factor Xa
In short: as §1

SMILES: COC(=O)CC(=O)NC(C)(C)C(=O)N[C@@H](CCCNC(=N)N)C(=O)Nc1ccc([N+](=O)[O-])cc1.Cl [MZ-Aib-Arg-pNA.HCl, malonyl-α-aminoisobutyryl-arginine p-nitroanilide methyl ester monohydrochloride]
- rate of hydrolysis for Factor Xa [1]: 0.01
- Factor Xa kcat [2]: 2.9 s⁻¹
- Factor Xa kcat /Km [2]: 738 M/s
- Km [2]: 3940 µM
- Km [3]: 830 µM
- kcat [3]: 0.46 s⁻¹
- kcat /Km [3]: 554 M/s
- Km [4]: 3940 µM
- kcat [4]: 2.9 s⁻¹
- kcat /Km [4]: 738 M/s
- rate of hydrolysis for protein C [5]: 0.03
- Km [6]: 830 µM
- Thrombin kcat [6]: 0.46 s⁻¹
- Thrombin kcat /Km [6]: 554 M/s
- rate of hydrolysis for plasmin [7]: 0.02
- rate of hydrolysis for thrombin [8]: 0.04

SMILES: CC(=O)NCC(=O)N[C@H](C(=O)N[C@@H](CCCNC(=N)N)C(=O)CCl)C(C)C [Ac-Gly-Val-Arg-CH2 Cl] (Ac-Gly-Val-Arg-CH2Cl)
- ki value, times lower than that for D-Phe-Pro-Arg-CH2 Cl [10]: 3×10^4

SMILES: COC(=O)CC(=O)N[C@H](C(=O)N[C@@H](CCCNC(=N)N)C(=O)Nc1ccc([N+](=O)[O-])cc1)C(C)C.Cl [MZ-Val-Arg-pNA.HCl]
- rate of hydrolysis for Factor Xa [1]: 0.03
- Km [11]: 1010 µM
- kcat [11]: 14.4 s⁻¹
- kcat /Km [11]: 14300 M/s
- Km [12]: 2570 µM
- kcat [12]: 6.42 s⁻¹
- kcat /Km [12]: 2500 M/s
- Km [13]: 1010 µM
- Thrombin kcat [13]: 14.4 s⁻¹
- Thrombin kcat /Km [13]: 14300 M/s
- rate of hydrolysis for protein C [5]: 0.12
- rate of hydrolysis for plasmin [7]: 0.08
- rate of hydrolysis for thrombin [8]: 0.21
- Factor Xa kcat [14]: 10.1 s⁻¹
- Factor Xa kcat /Km [14]: 2470 M/s
- Km [14]: 4080 µM

SMILES: COC(=O)CC(=O)N1CCC[C@H]1C(=O)N[C@@H](CCCNC(=N)N)C(=O)Nc1ccc([N+](=O)[O-])cc1 [CH3 O--CO--CH2 --CO-L-Pro-L-Arg-pNA]
- rate of hydrolysis for Factor Xa [1]: 0.14
- rate of hydrolysis for protein C [5]: 0.83
- rate of hydrolysis for plasmin [7]: 0.230
- rate of hydrolysis for thrombin [8]: 0.68

More lines, now with the values ahead:

- water solubility [9]: restricted water solubility
SMILES: Cl.N=C(N)NCCC[C@H](NC(=O)CNS(=O)(=O)c1ccc2ccccc2c1)C(=O)Nc1ccc([N+](=O)[O-])cc1 [Substrate 25]

- water solubility [9]: restricted water solubility
SMILES: CCCCC(NC(=O)C1CCCCN1C(=O)C(N)Cc1ccccc1)C(=O)Nc1ccc([N+](=O)[O-])cc1.Cl (stereo not shown) [Substrate 6] (H-Phe-[Pip]-[Nle]-pNA; configuration not given here)

- water solubility [9]: restricted water solubility
SMILES: CCCC[C@H](NC(=O)[C@@H]1CCCN1C(=O)[C@H](N)Cc1ccccc1)C(=O)Nc1ccc([N+](=O)[O-])cc1.Cl [Substrate 7] (H-[dF]-Pro-[Nle]-pNA)
